Experimental data: patent US7998965B2, “Glutamate aggrecanase inhibitors” (Wyeth LLC, priority 2005, dated 2011)

Columns and labels:
[1] = molecular target: T1, recombinant human catalytic domain of MMP-13 (Homo sapiens, UniProt P45452); experiment: In vitro fluorescence assay of MMP-13 activity; assay type: biochemical; conditions: Table 1; unit inferred
T1 construct: catalytic domain of MMP-13 (165 amino acids, residues 104-268, 19 kDa)

[2] = molecular target: T2, recombinant human catalytic domain of MMP-14 (Homo sapiens, UniProt P50281); experiment: In vitro fluorescence assay of MMP-14 activity; assay type: biochemical; conditions: Table 1; unit inferred
T2 construct: 177 amino acids corresponding to Tyr89-Gly265 of mature human enzyme; purchased Chemicon International, Inc. CC1041

[3] = tested on: bovine articular cartilage treated with Interleukin 1 alpha (IL-1α); experiment: Bovine articular cartilage explant cultures: inhibition of degradation of proteoglycan; assay type: cell-based; conditions: inhibitory effect expressed as percentage, concentration not printed
Outline: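 Bovine metacarpal cartilage discs (6 mm), equilibrated in serum-free DMEM-based medium, were treated with 5 ng/ml IL-1 plus compound (working solutions 0.1-10 μg/ml), with medium collected and replaced on days 1, 2 and 3. Released proteoglycan was measured by DMMB absorbance at 520 nm against chondroitin sulphate standards, expressed as μg per mg cartilage, and inhibition given as percentage.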

[4] = tested on: newly synthesized aggrecan in human OA articular cartilage; experiment: Cartilage aggrecan metabolism study in human OA cartilage explants; assay type: cell-based; conditions: cartilage from 3 human OA donors, 35SO4 label
Text: Human OA Cartilage Explant Culture: Discarded tissues from consented knee replacement patients were obtained from New England Baptist Hospital (Brookline, Mass.) in sterile phosphate buffered saline (PBS) after about 2-4 hrs post surgery. Cartilage slices were harvested from the knee specimens and washed several times in PBS. These cartilage slices were cut into appropriate pieces (6-8 mm) and rinsed in PBS and then in media and further cultured for additional days as cartilage explants. The medium consisted of Dulbecco's Modified Eagle's medium (DMEM, JRH Biosciences, Lenexa, Kans.), 50 μg/ml ascorbic acid (Wako, Osaka, Japan), 10 mM HEPES, pH 7.0 (Mediatech, Herndon, Va.), 2 mM L-glutamine (Mediatech), 100 U/ml antibiotic-antimycotic solution (Mediatech).
Cartilage aggrecan metabolism study: Cartilage metabolism study was performed with test compound 8OO. Cartilage explants immediately after harvest were cultured in the presence or absence of test compound 8OO. On day 3, media was collected and replaced with media, test compound and labeled sulfate (^35SO4,5 mCi, Perkin Elmer, Boston, Mass.). On day 6, media was collected, explants washed and replaced with media and test compound 8OO. […] Labeled aggrecan molecules were counted using Opti-Fluor (Perkin Elmer) and a liquid scintillation-measuring instrument (Beckman Coulter, Fullerton, Calif.). […]

recombinant human MMP-2 = molecular target: T3, recombinant human MMP-2 (Homo sapiens, UniProt P08253); experiment: In vitro fluorescence assay of MMP-2 activity
T3 sequence (P08253 110-660): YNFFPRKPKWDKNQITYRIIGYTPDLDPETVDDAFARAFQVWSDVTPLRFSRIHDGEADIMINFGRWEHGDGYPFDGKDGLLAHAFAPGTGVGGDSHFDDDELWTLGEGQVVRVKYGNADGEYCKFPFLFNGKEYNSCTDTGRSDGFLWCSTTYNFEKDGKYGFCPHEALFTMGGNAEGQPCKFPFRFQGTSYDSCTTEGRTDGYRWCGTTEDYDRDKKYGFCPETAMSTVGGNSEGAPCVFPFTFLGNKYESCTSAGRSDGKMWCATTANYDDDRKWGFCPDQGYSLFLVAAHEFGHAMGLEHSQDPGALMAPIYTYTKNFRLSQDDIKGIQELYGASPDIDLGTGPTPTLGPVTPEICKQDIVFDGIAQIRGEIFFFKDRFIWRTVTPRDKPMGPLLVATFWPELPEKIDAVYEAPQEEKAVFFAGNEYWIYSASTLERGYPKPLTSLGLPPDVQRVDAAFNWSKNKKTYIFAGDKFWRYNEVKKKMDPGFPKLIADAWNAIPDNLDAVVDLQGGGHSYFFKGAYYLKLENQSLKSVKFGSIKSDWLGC
Method: A continuous assay was used in which the substrate is a synthetic peptide containing a fluorescent group (7-methoxycoumarin; Mca), which is quenched by energy transfer to a 2,4-dinitrophenyl group. […] The source of enzyme in the assay was the recombinant human MMP-2 (66 kDa; Oncogene Research Products (catalog number PF023 from Calbiochem)). The substrate used was the peptide Mca-PQGL-(3-[2,4-dinitrophenyl]-L-2,3-diaminopropionyl)-AR-OH. The assay buffer consisted of 50 mM Hepes (pH 7.4), 100 mM NaCl, 5 mM CaCl2, and 0.005% Brij-35. […] The plates were then incubated at 30° C. for 15 minutes. The enzymatic reactions were initiated by adding the substrate to a final concentration of 20 μM, and mixing 10 times with a pipette. The final DMSO concentration in the assay was 6.0%.
Plots of the inhibitor concentration vs. the percent inhibition were fit to the following equation: y=(a−d)/[^1+(x/c)^b]+d, a general sigmoidal curve with Hill slope, a to d. x is the inhibitor concentration under test. y is the percent inhibition. a is the limiting response as x approaches zero. As x increases without bound, y tends toward its limit d. c is the inflection point (IC50) for the curve. That is, y is halfway between the lower and upper asymptotes when x=c. b is the slope factor or Hill coefficient.

- IC50 [1]: > 50 µM
- IC50 [2]: > 200 µM
- IC50 (recombinant human MMP-2): > 20 µM
SMILES: CC(C)(Cc1ccc(F)cc1)NC(=O)[C@H](CCC(=O)O)NC(=O)c1ccc(-c2ccccc2)cc1 [Example 8OO, N^2-(1,1′-biphenyl-4-ylcarbonyl)-N^1-[2-(4-fluorophenyl)-1,1-dimethylethyl]-L-α-glutamine]
- bovine ([3]; Table 1, first of two columns headed bovine): 87%
- bovine ([3]; Table 1, second of two columns headed bovine): 40%
- aggrecan released into the medium [4]: equivalent decrease
- newly synthesized aggrecan content of the cartilage matrix [4]: dose dependent increase
